Paper PMC3398407 (The Journal of Neuroscience, 2012)
Several values for one entry are separate records, joined by “and”; a condition that tells them apart may be missing. Equal entries are not always repeated. Where two headings read alike, the source gives them in different places.

Columns and labels:
[1] = tested on: Schaffer collateral-CA1 synapse; assay: Muscarinic long-term depression; conditions: 10 minutes, rat hippocampal slices
[2] = tested on: striatal medium spiny neurons (MSNs); set-up: species or system rats
[3] = tested on: mPFC layer V pyramidal neurons; assay: Whole-cell voltage clamp recordings of sEPSCs in mPFC layer V pyramidal neurons; set-up: species or system mice; conditions: mouse mPFC slices; for effect on sEPSC frequency / interevent interval (IEI): 100 μM
[4] = biological target: T1, human M1 receptors (Homo sapiens, UniProt P11229); assay: ERK1/2 phosphorylation; type: cell-based; conditions: hM1 CHO cells, 5 min agonist; for EC50: read-out: ERK EC50
T1 sequence (P11229 1-460): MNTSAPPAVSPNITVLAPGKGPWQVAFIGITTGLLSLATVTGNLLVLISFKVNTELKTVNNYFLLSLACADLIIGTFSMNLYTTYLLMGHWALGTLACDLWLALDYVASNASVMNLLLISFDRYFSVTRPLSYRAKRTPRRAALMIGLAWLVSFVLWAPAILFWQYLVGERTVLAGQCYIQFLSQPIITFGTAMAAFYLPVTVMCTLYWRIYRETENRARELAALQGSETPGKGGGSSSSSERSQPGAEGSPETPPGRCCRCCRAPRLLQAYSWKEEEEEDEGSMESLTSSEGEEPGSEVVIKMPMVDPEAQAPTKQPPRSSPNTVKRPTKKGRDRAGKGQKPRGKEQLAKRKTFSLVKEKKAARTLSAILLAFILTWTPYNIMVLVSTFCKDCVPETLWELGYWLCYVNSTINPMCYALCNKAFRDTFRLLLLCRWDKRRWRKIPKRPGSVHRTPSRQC

[5] = biological target: T2, hM1 receptors (Homo sapiens, UniProt P11229); assay: β-arrestin recruitment, PathHunter Express hM1 CHO cells; type: cell-based
T2 sequence (P11229 1-460): T1 sequence (P11229 1-460)

[6] = biological target: T3, human M1 mAChR (Homo sapiens, UniProt P11229); assay: ERK1/2 phosphorylation in TET-inducible hM1 TREx CHO cells; type: cell-based
T3 sequence (P11229 1-460): T1 sequence (P11229 1-460)

[7] = biological target: T3, human M1 mAChR; assay: Confocal imaging of β-arrestin2-YFP recruitment in hM1 TREx CHO cells; type: cell-based; conditions: agonist 100 μM
[8] = biological target: T4, M1 muscarinic receptors (Homo sapiens, UniProt P11229); assay: GPCRProfiler calcium assay, agonist mode, M1; type: cell-based; conditions: 10 μM compound
T4 sequence (P11229 1-460): T1 sequence (P11229 1-460)

[9] = tested on: 168 G protein coupled receptors (GPCRs); assay: GPCRProfiler calcium assay, agonist mode, other GPCRs; type: cell-based; conditions: 10 μM compound
[10] = biological target: T5, D4 dopamine receptors (Homo sapiens, UniProt P21917); assay: GPCRProfiler calcium assay, D4; type: cell-based; conditions: 10 μM compound
T5 sequence (P21917 1-419): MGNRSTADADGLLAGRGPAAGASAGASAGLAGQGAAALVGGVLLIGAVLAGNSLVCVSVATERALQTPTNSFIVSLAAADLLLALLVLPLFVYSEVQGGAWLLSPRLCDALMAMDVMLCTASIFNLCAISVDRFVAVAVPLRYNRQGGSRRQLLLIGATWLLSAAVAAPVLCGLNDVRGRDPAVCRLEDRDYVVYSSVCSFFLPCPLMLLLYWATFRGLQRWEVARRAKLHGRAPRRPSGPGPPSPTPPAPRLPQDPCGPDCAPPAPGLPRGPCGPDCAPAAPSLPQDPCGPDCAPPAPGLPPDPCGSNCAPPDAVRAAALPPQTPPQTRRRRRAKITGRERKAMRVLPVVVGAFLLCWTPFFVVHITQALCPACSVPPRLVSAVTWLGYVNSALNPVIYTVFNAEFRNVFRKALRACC

[11] = biological target: β3-adrenergic receptors (Homo sapiens, UniProt P13945); assay: GPCRProfiler calcium assay, β3; type: cell-based; conditions: 10 μM compound
Chain of β3-adrenergic receptors (P13945 whole entry): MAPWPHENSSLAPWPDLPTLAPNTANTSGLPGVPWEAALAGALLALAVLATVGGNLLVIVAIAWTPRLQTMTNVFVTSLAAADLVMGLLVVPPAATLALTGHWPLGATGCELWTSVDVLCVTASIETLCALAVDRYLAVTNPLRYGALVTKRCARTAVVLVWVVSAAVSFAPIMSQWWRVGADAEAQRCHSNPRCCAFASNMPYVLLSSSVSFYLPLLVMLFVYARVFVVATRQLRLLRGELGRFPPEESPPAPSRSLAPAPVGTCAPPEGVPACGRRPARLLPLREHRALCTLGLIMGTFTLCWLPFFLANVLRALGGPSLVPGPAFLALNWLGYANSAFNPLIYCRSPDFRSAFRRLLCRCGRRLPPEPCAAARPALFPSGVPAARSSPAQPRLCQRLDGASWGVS

[12] = tested on: Schaffer collateral-CA1 synapse in rat hippocampus; conditions: 500 nM bath applied 10 minutes prior to threshold TBS; rat hippocampal slices
[13] = tested on: Sprague-Dawley rats; assay: Morris water maze; type: in vivo, rat
[14] = tested on: Sprague-Dawley rats; assay: Acquisition of contextual fear conditioning; type: in vivo, rat; conditions: vs vehicle
[15] = tested on: rats; assay: Amphetamine-induced hyperlocomotion; type: in vivo, rat; conditions: 3–56.6 mg/kg i.p. 30 minutes prior to amphetamine
[16] = biological target: T1, human M1 receptors; assay: Calcium mobilization in hM1 CHO cells; conditions: for Ca release % CCh max: Emax normalized to maximum CCh response; for EC50: read-out: Ca release EC50
[17] = biological target: T3, human M1 mAChR; assay: Calcium mobilization in TET-inducible hM1 TREx CHO cells
[18] = tested on: D3 receptors; conditions: ref Lebois et al., 2011; cited from earlier work
[19] = read-out: ERK EC50, TET 50 ng/mL
[20] = read-out: ERK EC50, TET 1 μg/mL
[21] = i.p., treated groups vs controls
[22] = read-out: Ca EC50, TET 10 ng/mL
[23] = read-out: Ca EC50, TET 25 ng/mL
[24] = read-out: Ca EC50, TET 50 ng/mL

Structure (SMILES)	induction of LTD of fEPSP slope ([1]; 30 μM)	effect on sEPSC frequency / interevent interval (IEI) [3]	ERK % CCh max [4] [% CCh max]	EC50 [4] [µM]	effect on β-arrestin recruitment [5]	ERK % CCh max ([6]; TET 0 ng/mL) [% CCh max]	ERK % CCh max ([6]; TET 25 ng/mL) [% CCh max]	ERK % CCh max ([6]; TET 50 ng/mL) [% CCh max]	ERK % CCh max ([6]; TET 1 μg/mL) [% CCh max]	EC50 [6, 19] [µM]	EC50 [6, 20] [µM]	β-arrestin2-YFP recruitment (confocal) ([7]; TET 50 ng/mL overnight)	β-arrestin2-YFP recruitment (confocal) ([7]; TET 1 μg/mL overnight)	potentiation of threshold TBS LTP (fEPSP slope) [12]	excitatory effect in MSNs (number of spikes per depolarization pulse) ([2]; 30 μM)	reversal of amphetamine-induced hyperlocomotion [15]	Ca release % CCh max [16]	EC50 [16] [µM]	Ca % CCh max ([17]; TET 0 ng/mL) [% CCh max]	Ca % CCh max ([17]; TET 10 ng/mL) [% CCh max]	other results
C[N+](C)(C)CCOC(N)=O [CCh, carbachol, reference compound]	without effect	robust increase in sEPSC frequency	–	–	–	–	–	–	–	–	–	–	–	–	–	–	–	–	–	–	induction of LTD of fEPSP slope ([1]; 50 μM): induced robust LTD; excitatory effect in MSNs (number of spikes per depolarization pulse) ([2]; 10 μM): robust excitatory effect; concentration required for induction of the PFC response [3]: > 50 µM
CCOC(=O)N1CCC(NCCNC(=O)c2ccccc2C)CC1.Cl [VU0357017]	did not induce a significant LTD response	no significant effect on IEI	37.9	37	little or no effect on β-arrestin recruitment	27.4	50.3	45.9	30.3	35.9	3.17	no effect on β-arrestin recruitment	did not induce β-arrestin2 recruitment	significant potentiation of fEPSP slope	very weak efficacy in inducing excitatory effects	fails to reverse hyperlocomotion	41.7 ± 2.37 % CCh max and 41.7 % CCh max	1.6	8.24	7.21	agonist Ca response at M1 [8]: induced a significant response; agonist activity at other receptor subtypes [9]: little activity; agonist Ca response at D4 [10]: very small responses; agonist Ca response at β3 [11]: very small responses; overnight memory retention [13, 21]: did not differ from controls; platform crossing on the probe trial [13, 21]: did not differ from controls; swim path distance from days 4 to 5 [13, 21]: did not differ from controls; acquisition of contextual fear (duration of freezing) ([14]; 0.1, 0.3, 0.56, 1, and 3 mg/kg i.p. 30 min before conditioning): robust improvements in acquisition of contextual fear; Ca % CCh max ([17]; TET 25 ng/mL): 24.5 % CCh max; Ca % CCh max ([17]; TET 50 ng/mL): 60.4 % CCh max; Ca % CCh max ([17]; TET 1 μg/mL): 75.3 % CCh max; EC50 [17, 22]: 16 µM; EC50 [17, 23]: 16 µM; EC50 [17, 24]: 1.6 µM; EC50 ([17]; read-out: Ca EC50, TET 1 μg/mL): 0.69 µM
CCOC(=O)N1CCC(N2CCC[C@@H](NC(=O)c3ccccc3C)C2)CC1 [VU0364572]	induced robust LTD	no significant effect on IEI	90.5	10	little or no effect on β-arrestin recruitment	56.4	50.6	52.6	49.3	9.44	3.3	no effect on β-arrestin recruitment	did induce responses	significant potentiation of fEPSP slope	relatively weak excitatory effect	fails to reverse this response	70.8 % CCh max	0.89	44.2	39.9	EC50 ([6]; read-out: ERK EC50, TET 0 ng/mL): 108 µM; EC50 ([6]; read-out: ERK EC50, TET 25 ng/mL): 9.88 µM; swim distance, day 5 ([13]; 0.1 mg/kg and 10 mg/kg i.p. 30 min prior to first trial, vs vehicle): decreased swim distance; overnight memory retention day 4 to day 5 ([13]; 0.1 mg/kg i.p., vs vehicle): enhanced overnight memory retention; platform crossings during first 30 seconds of probe trial ([13]; 0.1 mg/kg i.p., vs vehicle): increased platform crossings; swim distance, day 4 ([13]; 0.1 mg/kg i.p., vs vehicle): enhancement; acquisition of contextual fear (freezing) ([14]; 0.056, 0.3, and 0.56 mg/kg i.p. 30 min before conditioning): improved acquisition of contextual fear learning; concentration required to induce effects at D3 receptors [18]: greater than 10 μM; inhibition of binding at D3 receptors [18]: 10%; Ca % CCh max ([17]; TET 25 ng/mL): 68.1 % CCh max; Ca % CCh max ([17]; TET 50 ng/mL): 78.1 % CCh max; Ca % CCh max ([17]; TET 1 μg/mL): 86.2 % CCh max; EC50 ([17]; read-out: Ca EC50, TET 0 ng/mL): 30.5 µM; EC50 [17, 22]: 146 µM; EC50 [17, 23]: 2.3 µM; EC50 [17, 24]: 1 µM; EC50 ([17]; read-out: Ca EC50, TET 1 μg/mL): 0.5 µM
